Entries after “also recorded” stand apart in the source; their conditions may differ.
How the values were obtained:
[1] = system: angiogenesis in human fat tissue; test: human fat tissue angiogenesis assay (substance added to the media); assay type: cell-based
Procedure: The above extracts of platycodin, both PS and PD, were assayed for antiangiogenic activity using the human fat angiogenesis assay of Greenway et al. (2007).
Study 1: An aqueous extract of Platycodi radix saponins at 1% w/v was tested in our human adipose tissue assay. Briefly, subcutaneous adipose tissue was removed from patients undergoing cosmetic surgical procedures. The fat was placed directly into sterile assay media, transported directly to the laboratory from the surgery suite in the sterile container and processed under a laminar flow hood. The tissue was cut into fragments approximately 1 mm thick and 2 mm in diameter. These fragments were placed in 96-well plates containing a 4 μL human thrombin solution (0.05 IU in 4 μL per well) and covered with 100 μL clotting media (3 mg/mL fibrinogen; Sigma Chemical Co., St Louis, Mo., USA), 0.5% ε-amino caproic acid (Sigma Chemical Co.) in angiogenesis media containing 100 U/mL penicillin, 100 U/mL streptomycin sulfate and 2.5 μg/mL amphotericin β in Medium 199 (Gibco BRL, Gaithersburg, Md., USA). The mixture was allowed to clot by incubation in 6% CO2 at 37° C. in a humidified incubator. After the media had gelled overnight, the fat-containing clot was supplemented with 100 μL angiogenesis media containing 20% fetal bovine serum (Gibco BRL). The total volume of each well was 200 μL. There were 30 replicates for the 1% w/v Platycodi radix saponins and the media control. The angiogenesis media were replaced every 48 h and appropriate concentrations of fresh Platycodi radix saponins or media control were added. Wells were evaluated for the angiogenic response as described by Greenway et al. (2007). An observer unbiased to the treatment protocols evaluated the angiogenic response using a semi-quantitative visual rating scale. Briefly, the tissue was viewed under an inverted microscope, visually divided into four quadrants and each quadrant was given a numeric score from 0 to 4 based on the neovessels' length, density, and percentage of the quadrants' circumference involved with the angiogenic response. Numeric results from the four quadrants were summed and expressed as an angiogenic index ranging from 0 (no neovessels apparent in any quadrant) to 16 (highly vascularized in all four quadrants). The extract of Platycodi radix saponins at 1% w/v was tested, followed by Platycodin D, and finally by the Platycodi radix saponins standardized to the Platycodin D content.

[2] = molecular target: T1, pancreatic lipase (Homo sapiens, UniProt P16233); conditions: cited from earlier work
T1 sequence (P16233 17-465): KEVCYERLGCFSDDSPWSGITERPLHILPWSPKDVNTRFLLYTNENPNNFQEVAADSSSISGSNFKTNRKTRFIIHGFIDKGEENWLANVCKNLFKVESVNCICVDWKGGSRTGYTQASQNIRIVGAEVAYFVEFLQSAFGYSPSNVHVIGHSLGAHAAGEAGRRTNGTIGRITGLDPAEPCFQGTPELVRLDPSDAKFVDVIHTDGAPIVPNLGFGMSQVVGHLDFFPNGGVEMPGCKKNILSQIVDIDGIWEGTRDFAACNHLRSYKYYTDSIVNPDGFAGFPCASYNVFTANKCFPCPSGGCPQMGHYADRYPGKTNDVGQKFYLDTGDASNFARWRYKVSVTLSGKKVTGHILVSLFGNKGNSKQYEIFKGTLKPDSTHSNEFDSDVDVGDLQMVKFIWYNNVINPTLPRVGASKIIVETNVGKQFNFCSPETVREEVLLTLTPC

In the case of `C[C@@H]1O[C@@H](O[C@H]2[C@H](OC(=O)[C@]34CCC(C)(C)C[C@H]3C3=CC[C@@H]5[C@@]6(C)C[C@H](O)[C@H](O[C@@H]7O[C@H](CO)[C@@H](O)[C@H](O)[C@H]7O)C(CO)(CO)[C@@H]6CC[C@@]5(C)[C@]3(C)C[C@H]4O)OC[C@H](O)[C@@H]2O)[C@H](O)[C@H](O)[C@H]1O[C@@H]1OC[C@@H](O)[C@H](O[C@@H]2OC[C@](O)(CO)[C@H]2O)[C@H]1O` [PD, platycodin D], the “inhibition of angiogenesis (angiogenic index)” value ([1]; 10^-4 M (concentration of platycodin D) and higher) is reported as “complete inhibition of angiogenesis”, the inhibition of angiogenesis ([1]; 10^-5 M, difference not statistically significant) is reported as “partial inhibition” and the inhibition of angiogenesis ([1]; concentration not given) is reported as “inhibited angiogenesis; also recorded: inhibitors of angiogenesis”. The inhibition of angiogenesis ([1]; concentrations above 10^-4 M) was “totally inhibited angiogenesis”, the inhibition of angiogenesis ([1]; concentrations below 10^-4 M) was “did not inhibit angiogenesis” and the “inhibition of pancreatic lipase” value [2] was “inhibit pancreatic lipase”.
